≈ marks a conversion by molar mass, not a printed value. Calls of active or inactive are those of the source. The calls are words filed in the database; no cut-off is given here.
Key:
[1] = Cytotoxicity against African green monkey Vero cells assessed as reduction in cell viability measured after 72 hrs by MTT assay; format: toxicity, cell-based; details: chlorocebus sabaeus
[2] = tested on: Mycobacterium tuberculosis; assay: Antimycobacterial activity against Mycobacterium tuberculosis H37Rv assessed as reduction in log10CFU at 10 X MIC measured after 5 to 6 days by time kill assay; format: functional, organism-based; details: time 5-6 day
Mycobacteroides chelonae = assay: Antimycobacterial activity against Mycobacterium chelonae ATCC 6841 assessed as inhibition of bacterial growth after 48 hrs by resazurin microtitre assay; format: functional
[3] = tested on: Mycobacteroides abscessus; assay: Antimycobacterial activity against Mycobacterium abscessus ATCC 19977 assessed as inhibition of bacterial growth after 48 hrs by resazurin microtitre assay; format: functional
Pseudomonas aeruginosa = assay: Antibacterial activity against Pseudomonas aeruginosa ATCC 27853 assessed as reduction in bacterial growth incubated for 16 to 18 hrs by microtiter plate assay; format: functional; details: time 16-18 hrs
[4] = tested on: Mycobacterium tuberculosis; assay: Antimycobacterial activity against Mycobacterium tuberculosis H37Rv ATCC 27294 assessed as inhibition of bacterial growth measured after 7 days by resazurin microtitre assay; format: functional; details: H37Rv ATCC 27294, 168 h, time 7 day
[5] = tested on: Mycolicibacterium fortuitum; assay: Antimycobacterial activity against Mycobacterium fortuitum ATCC 6841 assessed as inhibition of bacterial growth after 48 hrs by resazurin microtitre assay; format: functional
Staphylococcus aureus = assay: Antibacterial activity against Staphylococcus aureus ATCC 29213 assessed as reduction in bacterial growth incubated for 16 to 18 hrs by microtiter plate assay; format: functional; details: time 16-18 hrs
Escherichia coli = assay: Antibacterial activity against Escherichia coli ATCC 25922 assessed as reduction in bacterial growth incubated for 16 to 18 hrs by microtiter plate assay; format: functional; details: time 16-18 hrs
Acinetobacter baumannii = assay: Antibacterial activity against Acinetobacter baumannii BAA 1605 assessed as reduction in bacterial growth incubated for 16 to 18 hrs by microtiter plate assay; format: functional; details: time 16-18 hrs
[6] = Selectivity index, ratio of CC50 for African green monkey Vero cells to MIC for Mycobacterium tuberculosis H37Rv ATCC 27294; format: toxicity; details: read-out: Selectivity Index
Klebsiella pneumoniae = assay: Antibacterial activity against Klebsiella pneumoniae BAA 1705 assessed as reduction in bacterial growth incubated for 16 to 18 hrs by microtiter plate assay; format: functional; details: time 16-18 hrs
[7] = tested on: Mycobacterium tuberculosis; assay: Antimycobacterial activity against Mycobacterium tuberculosis H37Rv assessed as reduction in log10CFU at 1XMIC measured after 5 to 6 days by time kill assay; format: functional, organism-based; details: time 5-6 day
[8] = tested on: Mycobacterium tuberculosis; assay: Antimycobacterial activity against Mycobacterium tuberculosis H37Rv at 1 X MIC measured after 5 to 7 days by time kill assay; format: functional; details: time 5-7 day
[9] = tested on: Mycobacterium tuberculosis; assay: Antimycobacterial activity against Mycobacterium tuberculosis H37Rv at 10 X MIC measured after 5 to 7 days by time kill assay; format: functional; details: time 5-7 day
[10] = Aqueous solubility in phosphate buffer at pH 7.4 incubated for 4 hrs by HPLC analysis; format: physicochemical
[11] = Metabolic stability in human liver microsomes assessed as half life at 1 uM preincubated for 5 mins in presence of NADPH incubated up to 60 mins by LC-MS/MS analysis; format: ADME, Microsome; details: time 65 min
[12] = tested on: Mycobacterium tuberculosis; assay: Antimycobacterial activity against Mycobacterium tuberculosis H37Rv assessed as minimum bactericidal concentration by time kill assay; format: functional
[13] = Metabolic stability in human liver microsomes assessed as intrinsic clearance at 1 uM preincubated for 5 mins in presence of NADPH incubated up to 60 mins by LC-MS/MS analysis; format: ADME, Microsome; details: time 65 min, read-out: CLH
[14] = Metabolic stability in human liver microsomes assessed as elimination rate constant at 1 uM preincubated for 5 mins in presence of NADPH incubated up to 60 mins by LC-MS/MS analysis; format: ADME, Microsome; details: time 65 min

| SMILES | CC50 at 72 h [1] [µg/mL] | Activity [2] | MIC (Mycobacteroides chelonae) [µg/mL] | MIC [3] [µg/mL] | MIC (Pseudomonas aeruginosa) [µg/mL] | MIC [4] [µg/mL] | MIC [5] [µg/mL] | MIC (Staphylococcus aureus) [µg/mL] | MIC (Escherichia coli) [µg/mL] | MIC (Acinetobacter baumannii) [µg/mL] | selectivity ratio [6] | MIC (Klebsiella pneumoniae) [µg/mL] | Activity [7] | Activity [8] [%] | Activity [9] [%] | solubility at 4 h [10] [µg/mL] | half-life at 1 µM [11] [min] | MBC [12] [µg/mL] | microsomal CLint at 1 µM [13] [µL/min/mg] | k el at 1 h, 1 µM [14] [s⁻¹] |
| --- | --- | --- | --- | --- | --- | --- | --- | --- | --- | --- | --- | --- | --- | --- | --- | --- | --- | --- | --- | --- |
| O=C(/C=C/c1ccc([N+](=O)[O-])o1)c1ccc(Nc2nc3cc([N+](=O)[O-])ccc3o2)cc1 | 5 (≈ 11.9 µM) | Active | > 64 | > 64 | > 64 | 0.03 (≈ 0.0714 µM) | > 64 | 4 (≈ 9.52 µM) | > 64 | > 64 | > 800 | > 64 | Active |  |  |  |  |  |  |  |
| O=C(/C=C/c1ccc([N+](=O)[O-])o1)c1ccc(Nc2nc3ccccc3o2)cc1 | 5 (≈ 13.3 µM) | Active | > 64 | > 64 | > 64 | 0.12 (≈ 0.32 µM) | > 64 | 4 (≈ 10.7 µM) | > 64 | > 64 | 40 | > 64 | Active |  |  |  |  |  |  |  |
| CO[C@H]1/C=C/O[C@@]2(C)Oc3c(C)c(O)c4c(O)c(c(/C=N/N5CCN(C)CC5)c(O)c4c3C2=O)NC(=O)/C(C)=C\C=C\[C@H](C)[C@H](O)[C@@H](C)[C@@H](O)[C@@H](C)[C@H](OC(C)=O)[C@@H]1C [RIFAMPIN] |  | Active |  |  |  | 0.03 (≈ 0.0365 µM) |  |  |  |  |  |  | Active |  |  |  |  |  |  |  |
| O=C(/C=C/c1ccc([N+](=O)[O-])o1)c1ccc(Nc2nc3cc(Cl)ccc3o2)cc1 | 5 (≈ 12.2 µM) |  | > 64 | > 64 | > 64 | 0.03 (≈ 0.0732 µM) | > 64 | 4 (≈ 9.76 µM) | > 64 | > 64 | 160 | > 64 |  | 100 | 100 | 2.5 (≈ 6.1 µM) | 34.6 | 0.03 (≈ 0.0732 µM) | 38.5 | 0.000333 |
